Data: patent publication US8911805B2, “Calcium preparation and method of production thereof” (Toyo Suisan Kaisha, Ltd., priority 2010, dated 2014)

Test system: bone loss in low-Ca fed rats
Test: Oral study of solid preparation of calcium in rats (dry weight of tibia)
Type: in vivo, Crl:CD (SD) rats
Conditions: compared to the low calcium fed group; feed Ca content 0.5%, three weeks
Experimental: A test for the improvement, effect of the solid preparation or calcium of the present invention on bone loss in low-Ca fed rats was performed using 5-week-old male Crl:CD (SD) rats. AIN-93M was administered to 4-week old rats. After habituation for one week, various kinds of feeds were administered to the rats for three weeks. As a basic feed, a feed obtained by modifying the content of calcium in AIN-93M to 0.2% (normal feed: 0.5%) was used.
The test groups included the following six groups (one group: eight rats): a low calcium fed group to which a basic feed was administered; a group to which a basic feed containing calcium carbonate at a Ca content of 0.5% was administered; a group to which a basic feed containing freeze-dried powder of a C100P100Ca200K225 solution after aging (at 37° C. for two days) at a Ca content of 0.5% was administered; a group to which a basic feed containing freeze-dried powder of a C200P100Ca200K550 solution after aging (at 37° C. for one day) a Ca content of 0.5% was administered; a group to which a basic feed containing freeze-dried powder of a C100P100Ca200K225 solution before aging at a Ca content of 0.5% was administered; and a group to which basic feed containing calcium lactate at a Ca content of 0.5% was administered.
After three weeks, the dry weight of the extracted tibia was measured. […]

Structure (SMILES) | bone weight (dry weight of the extracted tibia)
O=C([O-])[O-].[Ca+2] [calcium carbonate] | significantly increased
CC(O)C(=O)[O-].CC(O)C(=O)[O-].[Ca+2] (centres unmarked) [calcium lactate] | significantly increased
